Laboratory results published in US20230087342A1, “AZEPANE DERIVATIVE” (Nippon Chemiphar Co., Ltd., priority 2019, published 2023).

Each compound was assayed against T1, human κ opioid receptors (Homo sapiens, UniProt P41145) (assay: Opioid receptor function test (Lance Ultra cAMP kit, agonist activity)). Conditions: CHO cells expressing human κ opioid receptors, 10 μM forskolin, 30 minutes.
T1 construct: host or cells: CHO cells
T1 sequence (P41145 whole entry): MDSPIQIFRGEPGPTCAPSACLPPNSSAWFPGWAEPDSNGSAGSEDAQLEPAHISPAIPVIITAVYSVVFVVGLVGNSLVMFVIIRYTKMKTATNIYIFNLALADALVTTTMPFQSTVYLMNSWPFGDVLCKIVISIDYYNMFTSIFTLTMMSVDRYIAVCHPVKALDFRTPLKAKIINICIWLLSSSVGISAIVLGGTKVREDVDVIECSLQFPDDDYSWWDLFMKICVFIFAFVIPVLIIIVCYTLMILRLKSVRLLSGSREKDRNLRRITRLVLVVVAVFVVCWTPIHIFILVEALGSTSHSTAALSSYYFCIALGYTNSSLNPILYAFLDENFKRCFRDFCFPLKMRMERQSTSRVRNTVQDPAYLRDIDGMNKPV
Type: cell-based
Method in brief: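 CHO cells expressing human κ opioid receptor incubated 30 min with test compound (10^−14 to 10^−7 M) and 10 μM forskolin in HSS/5 mM HEPES pH 7.4 with 0.5 mM IBMX and 0.1% SA. cAMP measured by TR-FRET (Lance Ultra) 1 h after detection reagent addition.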
`O=C(Cn1nccc1O)N1CC[C@]23CCN(CC4CC4)[C@H](Cc4ccc(O)cc42)[C@]3(O)CC1` [Example 214, 1-((5aS,6R,11bR)-14-(cyclopropylmethyl)-5a,10-dihydroxy-1,2,5,5a,6,7-hexahydro-6,11b-(epiminoethano)naphtho[1,2-d]azepin-3(4H)-yl)-2-(5-hydroxy-1H-pyrazol-1-yl)ethan-1-one] was tested, and the EC50 was 0.13 nM. With `Cc1cc(CCC(=O)N2CC[C@]34CCN(CC5CC5)[C@H](Cc5ccc(O)cc53)[C@]4(O)CC2)ns1` [Example 217, 1-((5aS,6R,11bR)-14-(cyclopropylmethyl)-5a,10-dihydroxy-1,2,5,5a,6,7-hexahydro-6,11b-(epiminoethano)naphtho[1,2-d]azepin-3(4H)-yl)-3-(5-methylisothiazol-3-yl)propan-1-one] the EC50 was 0.18 nM. Compound `Cc1cnn(CCN2CC[C@]34CCN(CC5CC5(F)F)[C@H](Cc5ccc(O)cc53)[C@]4(O)CC2)c1` (stereo partly drawn) [Example 218, (5aS,6R,11bS)-14-((2,2-difluorocyclopropyl)methyl)-3-(2-(4-methyl-1H-pyrazol-1-yl)ethyl)-2,3,4,5,6,7-hexahydro-6,11b-(epiminoethano)naphtho[1,2-d]azepine-5a,10(1H)-diol] has an EC50 of 0.16 nM. In the case of `Cc1cnn(CCN2CC[C@]34CCN(C[C@@H]5C[C@@H]5F)[C@H](Cc5ccc(O)cc53)[C@]4(O)CC2)c1` [Example 219, (5aS,6R,11bS)-14-(((1S,2S)-2-fluorocyclopropyl)methyl)-3-(2-(4-methyl-1H-pyrazol-1-yl)ethyl)-2,3,4,5,6,7-hexahydro-6,11b-(epiminoethano)naphtho[1,2-d]azepine-5a,10(1H)-diol], the EC50 is reported as 0.23 nM. For `Cc1cnn(CCC(=O)N2CC[C@]34CCN(CC5CC5)[C@H](Cc5ccc(O)cc53)[C@]4(O)CC2)c1` [Example 220, 1-((5aS,6R,11bR)-14-(cyclopropylmethyl)-5a,10-dihydroxy-1,2,5,5a,6,7-hexahydro-6,11b-(epiminoethano)naphtho[1,2-d]azepin-3(4H)-yl)-3-(4-methyl-1H-pyrazol-1-yl)propan-1-one], the EC50 was 0.26 nM. Work on `Cc1cnn(CCN2CC[C@]34CCN(CC5(C)CC5)[C@H](Cc5ccc(O)cc53)[C@]4(O)CC2)c1` [Example 221, (5aS,6R,11bS)-3-(2-(4-methyl-1H-pyrazol-1-yl)ethyl)-14-((1-methylcyclopropyl)methyl)-2,3,4,5,6,7-hexahydro-6,11b-(epiminoethano)naphtho[1,2-d]azepine-5a,10(1H)-diol] yielded an EC50 of 0.034 nM. With `Cc1cnn(CCN2CC[C@]34CCN(CC5(O)CC5)[C@H](Cc5ccc(O)cc53)[C@]4(O)CC2)c1` [Example 225, (5aS,6R,11bS)-14-((1-hydroxycyclopropyl)methyl)-3-(2-(4-methyl-1H-pyrazol-1-yl)ethyl)-2,3,4,5,6,7-hexahydro-6,11b-(epiminoethano)naphtho[1,2-d]azepine-5a,10(1H)-diol] the EC50 was 0.11 nM. `Cc1cnn(CCN2CC[C@]34CCN(CC5(F)CC5)[C@H](Cc5ccc(O)cc53)[C@]4(O)CC2)c1` [Example 226, (5aS,6R,11bS)-14-((1-fluorocyclopropyl)methyl)-3-(2-(4-methyl-1H-pyrazol-1-yl)ethyl)-2,3,4,5,6,7-hexahydro-6,11b-(epiminoethano)naphtho[1,2-d]azepine-5a,10(1H)-diol] was tested, and the EC50 was 0.017 nM. In the case of `Cc1cnn(CCCN2CC[C@]34CCN(CC5CC5)[C@H](Cc5ccc(O)cc53)[C@]4(O)CC2)c1` [Example 230, (5aS,6R,11bS)-14-(cyclopropylmethyl)-3-(3-(4-methyl-1H-pyrazol-1-yl)propyl)-2,3,4,5,6,7-hexahydro-6,11b-(epiminoethano)naphtho[1,2-d]azepine-5a,10(1H)-diol], the EC50 is reported as 0.066 nM. `Cc1cnn(C[C@H](CO)N2CC[C@]34CCN(CC5CC5)[C@H](Cc5ccc(O)cc53)[C@]4(O)CC2)c1` [Example 232, (5aS,6R,11bS)-14-(cyclopropylmethyl)-3-((R)-1-hydroxy-3-(4-methyl-1H-pyrazol-1-yl)propan-2-yl)-2,3,4,5,6,7-hexahydro-6,11b-(epiminoethano)naphtho[1,2-d]azepine-5a,10(1H)-diol] showed an EC50 of 0.17 nM. For `Cc1cnn(C[C@@H](CO)N2CC[C@]34CCN(CC5CC5)[C@H](Cc5ccc(O)cc53)[C@]4(O)CC2)c1` [Example 234, (5aS,6R,11bS)-14-(cyclopropylmethyl)-3-((S)-1-hydroxy-3-(4-methyl-1H-pyrazol-1-yl)propan-2-yl)-2,3,4,5,6,7-hexahydro-6,11b-(epiminoethano)naphtho[1,2-d]azepine-5a,10(1H)-diol], the EC50 was 0.087 nM. `Cc1cnn([C@H]2CC[C@@H](N3CC[C@]45CCN(CC6CC6)[C@H](Cc6ccc(O)cc64)[C@]5(O)CC3)C2)c1` [Example 236, (5aS,6R,11bS)-14-(cyclopropylmethyl)-3-((1R,3S)-3-(4-methyl-1H-pyrazol-1-yl)cyclopentyl)-2,3,4,5,6,7-hexahydro-6,11b-(epiminoethano)naphtho[1,2-d]azepine-5a,10(1H)-diol] was tested, and the EC50 was 0.012 nM. `Cc1cnn(CCN2CC[C@]34CCN(CC5CC5)[C@H](Cc5ccc(OC(=O)C(C)(C)C)cc53)[C@]4(O)CC2)c1` [Example 238, (5aS,6R,11bS)-14-(cyclopropylmethyl)-5a-hydroxy-3-(2-(4-methyl-1H-pyrazol-1-yl)ethyl)-1,2,3,4,5,5a,6,7-octahydro-6,11b-(epiminoethano)naphtho[1,2-d]azepin-10-yl pivalate] was tested, and the EC50 was 0.45 nM. Compound `Cc1cnn(CCN2CC[C@]34CCN(CC5CC5)[C@H](Cc5ccc(O[C@@H]6O[C@H](C(=O)O)[C@@H](O)C(O)[C@H]6O)cc53)[C@]4(O)CC2)c1` (stereo partly drawn) [Example 246, (2S,3S,5R,6S)-6-(((5aS,6R,11bS)-14-(cyclopropylmethyl)-5a-hydroxy-3-(2-(4-methyl-1H-pyrazol-1-yl)ethyl)-1,2,3,4,5,5a,6,7-octahydro-6,11b-(epiminoethano)naphtho[1,2-d]azepin-10-yl)oxy)-3,4,5-trihydroxytetrahydro-2H-pyran-2-carboxylic acid] has an EC50 of 2.6 nM. For `NC(=O)c1ccc2c(c1)[C@@]13CCN(C(=O)CCn4cc(C(F)(F)F)cn4)CC[C@@]1(O)[C@@H](C2)N(CC1CC1)CC3` [Example 264, (5aS,6R,11bR)-14-(cyclopropylmethyl)-5a-hydroxy-3-(3-(4-(trifluoromethyl)-1H-pyrazol-1-yl)propanoyl)-1,2,3,4,5,5a,6,7-octahydro-6,11b-(epiminoethano)naphtho[1,2-d]azepine-10-carboxamide], the EC50 was 0.29 nM. Compound `NC(=O)c1ccc2c(c1)[C@@]13CCN(C(=O)Cc4n[nH]c5ccccc45)CC[C@@]1(O)[C@@H](C2)N(CC1CC1)CC3` [Example 265, (5aS,6R,11bR)-3-(2-(1H-indazol-3-yl)acetyl)-14-(cyclopropylmethyl)-5a-hydroxy-1,2,3,4,5,5a,6,7-octahydro-6,11b-(epiminoethano)naphtho[1,2-d]azepine-10-carboxamide] has an EC50 of 0.12 nM. Work on `Cc1cnn(CCN2CC[C@]34CCN(CC5CC5)[C@H](Cc5ccc(O)cc53)[C@]4(O)CC2(C)C)c1` [Example 270, (5aS,6R,11bR)-14-(cyclopropylmethyl)-4,4-dimethyl-3-(2-(4-methyl-1H-pyrazol-1-yl)ethyl)-2,3,4,5,6,7-hexahydro-6,11b-(epiminoethano)naphtho[1,2-d]azepine-5a,10(1H)-diol] yielded an EC50 of 0.052 nM. With `Cc1cnn(CCN2CC[C@]34CCN(CC5CC5)[C@H](Cc5ccc(O)cc53)[C@]4(O)CC2C)c1` (stereo partly drawn) [Example 274, (5aS,6R,11bS)-14-(cyclopropylmethyl)-4-methyl-3-(2-(4-methyl-1H-pyrazol-1-yl)ethyl)-2,3,4,5,6,7-hexahydro-6,11b-(epiminoethano)naphtho[1,2-d]azepine-5a,10(1H)-diol] the EC50 was 0.07 nM. `Cc1cc2c(cc1O)[C@@]13CCN(C(=O)Cc4cn5ccccc5n4)CC[C@@]1(O)[C@@H](C2)N(CC1CC1)CC3` [Example 314, 1-((5aS,6R,11bR)-14-(cyclopropylmethyl)-5a,10-dihydroxy-9-methyl-1,2,5,5a,6,7-hexahydro-6,11b-(epiminoethano)naphtho[1,2-d]azepin-3(4H)-yl)-2-(imidazo[1,2-a]pyridin-2-yl)ethan-1-one] gave an EC50 of 0.27 nM. For `Cc1cc(CC(=O)N2CC[C@]34CCN(CC5CC5)[C@H](Cc5cc(C)c(O)cc53)[C@]4(O)CC2)ns1` [Example 323, 1-((5aS,6R,11bR)-14-(cyclopropylmethyl)-5a,10-dihydroxy-9-methyl-1,2,5,5a,6,7-hexahydro-6,11b-(epiminoethano)naphtho[1,2-d]azepin-3(4H)-yl)-2-(5-methylisothiazol-3-yl)ethan-1-one], the EC50 was 0.18 nM. `Cc1cnn(CC(=O)N2CC[C@]34CCN(CC5CC5)[C@H](Cc5cc(C)c(O)cc53)[C@]4(O)CC2)c1` [Example 328, 1-((5aS,6R,11bR)-14-(cyclopropylmethyl)-5a,10-dihydroxy-9-methyl-1,2,5,5a,6,7-hexahydro-6,11b-(epiminoethano)naphtho[1,2-d]azepin-3(4H)-yl)-2-(4-methyl-1H-pyrazol-1-yl)ethan-1-one] gave an EC50 of 0.33 nM. Compound `Cc1cc2c(cc1O)[C@@]13CCN(C(=O)Cn4cc(C(F)(F)F)cn4)CC[C@@]1(O)[C@@H](C2)N(CC1CC1)CC3` [Example 329, 1-((5aS,6R,11bR)-14-(cyclopropylmethyl)-5a,10-dihydroxy-9-methyl-1,2,5,5a,6,7-hexahydro-6,11b-(epiminoethano)naphtho[1,2-d]azepin-3(4H)-yl)-2-(4-(trifluoromethyl)-1H-pyrazol-1-yl)ethan-1-one] has an EC50 of 0.084 nM. `Cc1cc2c(cc1O)[C@@]13CCN(C(=O)CN4CC[C@@H](C)C4)CC[C@@]1(O)[C@@H](C2)N(CC1CC1)CC3` [Example 336, 1-((5aS,6R,11bR)-14-(cyclopropylmethyl)-5a,10-dihydroxy-9-methyl-1,2,5,5a,6,7-hexahydro-6,11b-(epiminoethano)naphtho[1,2-d]azepin-3(4H)-yl)-2-((R)-3-methylpyrrolidin-1-yl)ethan-1-one] was tested, and the EC50 was 0.18 nM.
